Here are results for 3 molecules from ChEMBL document CHEMBL1125302, “Prodrugs of nitroxyl as inhibitors of aldehyde dehydrogenase” (J Med Chem, 1992).

The nature of assay [1]: In vitro inhibitory activity against yeast […] dehydrogenase; Active. The settings on record: Saccharomyces cerevisiae.
Assay [2] can be described thus: Inhibitory activity against porcine […] dehydrogenase; Active. The settings on record: Sus scrofa.

Each structure is given as a SMILES string. Calls of active or inactive are those of the source. No cut-off for these calls is given here.

With `CC(=O)ON(C(=O)OC(C)(C)C)S(=O)(=O)c1ccccc1`, the outcome in assay [1] and in assay [2] was Active.

With `N#CN(OC(=O)c1ccccc1)C(=O)c1ccccc1`, the result in assay [2] was Active.

With `CC(C)(C)OC(=O)N(OC(=O)c1ccccc1)S(=O)(=O)c1ccccc1`, the outcome in assay [1] and in assay [2] was Active.
